Results: PubChem BioAssay (NCI)
Values joined by “and” are separate entries in the source; they are usually repeats but may differ in a detail not shown here. Equal entries are not always repeated.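 Compound exposure: 48 hours, 5 concentrations, 96-well plates. Abbreviation: GI50, concentration required for 50% inhibition of growth. TGI is the concentration that stops growth completely.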

Experiments:
Experiment in all cases: inhibition of tumour cell growth, NCI panel, 48 h
EKVX NSCLC = system: EKVX NSCLC
SK-MEL-5 melanoma = system: SK-MEL-5 melanoma
SNB-19 CNS = system: SNB-19 CNS
U251 CNS = system: U251 CNS
A498 renal = system: A498 renal
HL-60(TB) leukemia = system: HL-60(TB) leukemia
IGROV1 ovarian = system: IGROV1 ovarian
HOP-92 NSCLC = system: HOP-92 NSCLC
M14 melanoma = system: M14 melanoma
MDA-MB-435 = system: MDA-MB-435
BT-549 breast = system: BT-549 breast
TK-10 renal = system: TK-10 renal
MOLT-4 leukemia = system: MOLT-4 leukemia

SMILES	TGI (EKVX NSCLC)	TGI (SK-MEL-5 melanoma)	TGI (SNB-19 CNS)	TGI (U251 CNS)	TGI (A498 renal)	TGI (HL-60(TB) leukemia)	TGI (IGROV1 ovarian)	TGI (HOP-92 NSCLC)	TGI (M14 melanoma)	TGI (MDA-MB-435)	TGI (BT-549 breast)	TGI (TK-10 renal)	TGI (MOLT-4 leukemia)	GI50 (EKVX NSCLC)	GI50 (HL-60(TB) leukemia)	GI50 (MDA-MB-435)	GI50 (BT-549 breast)	GI50 (MOLT-4 leukemia)	GI50 (SK-MEL-5 melanoma)	GI50 (IGROV1 ovarian)
CCN(CC)C(=S)SNCc1ccc(S(N)(=O)=O)cc1	43.5 µM	36.2 µM	34.1 µM	15.8 µM	> 100 µM	22.8 µM	26.6 µM	45.7 µM	25.1 µM	> 50.9 µM	33 µM	> 66 µM	> 62.2 µM	–	–	–	–	–	–	–
CCCCCCCCCCCCC(O)C1CCC(C(O)CCCCCCC(O)CCCCCCCC2=CC(C)OC2=O)O1 (stereo not drawn)	> 100 µM	22.2 µM	> 100 µM	> 100 µM	> 100 µM	62.8 µM	> 100 µM	72.1 µM	45.7 µM	> 100 µM	> 100 µM	> 100 µM	33 µM	23 µM	0.852 µM	27 µM	34.6 µM	3.17 µM	–	–
N#Cc1c(Cl)c2ccccc2n2c1nc1ccccc12	70 µM	–	> 100 µM	> 100 µM	> 100 µM	31 µM	38.7 µM	48.2 µM	69.8 µM	> 100 µM	> 100 µM	36.5 µM	75.9 µM	–	–	–	–	–	–	–
NC(N)=N/N=C/c1c(-c2ccc([N+](=O)[O-])cc2)nc2n1CCS2	37.8 µM	32 µM	11.4 µM	6.49 µM	42 µM	25.1 µM	38.6 µM	40.5 µM	30.2 µM	43.5 µM	34.2 µM	31.5 µM	> 33 µM	–	–	–	–	–	–	–
CCOC(=O)c1c(-c2ccc(O)c(OC)c2)c(C#N)c(=S)n(C2OC(COC(C)=O)C(OC(C)=O)C(OC(C)=O)C2OC(C)=O)c1-c1ccccc1 (stereo not drawn)	> 100 µM	65.6 µM and > 100 µM	> 100 µM	> 100 µM	> 100 µM	> 100 µM	55.5 µM and > 100 µM	> 100 µM	> 100 µM	> 100 µM	> 100 µM	–	> 100 µM	–	–	–	–	–	21.9 µM and 47.2 µM	18 µM and 79.7 µM
COc1c2ccccc2c(OC)c2nc(C)ccc12	> 100 µM	> 100 µM	> 100 µM	> 46.4 µM	> 100 µM	61.8 µM	> 100 µM	> 100 µM	> 100 µM	> 100 µM	> 100 µM	> 100 µM	99.7 µM	–	–	–	–	–	–	–
O=c1oc2ccccc2c(O)c1C(c1ccc(/C=C/c2ccccc2)cc1)c1c(O)c2ccccc2oc1=O	> 100 µM	74.4 µM	> 100 µM	43.9 µM	> 100 µM	> 100 µM	> 100 µM	53.5 µM	–	80 µM	56.2 µM	> 100 µM	66.8 µM	–	–	–	–	–	–	–
CC(=O)N(CCc1ccccc1)C(C#N)c1ccc(OCCCCCCCCCCOc2ccc(C(C#N)N(CCc3ccccc3)C(C)=O)cc2)cc1 (stereo not drawn)	> 100 µM	> 100 µM	88.1 µM	64.1 µM	92.6 µM	> 100 µM	> 100 µM	43.5 µM	> 100 µM	> 100 µM	98.6 µM	> 100 µM	> 100 µM	–	–	–	–	–	–	–
CC1=NN(c2nc(N)nc(CSCc3nc(N)nc(N(C)C)n3)n2)C(C)(C)C1	> 100 µM	> 100 µM	> 100 µM	> 100 µM	> 100 µM	> 100 µM	> 100 µM	> 100 µM	> 100 µM	> 100 µM	> 100 µM	> 100 µM	> 100 µM	–	–	–	–	–	–	–
CC1=C(C(=O)NCCc2ccccc2)CC(C(=O)NCCc2ccccc2)=C(C)N1	> 100 µM	–	72.5 µM	> 100 µM	> 100 µM	> 100 µM	> 100 µM	> 100 µM	> 100 µM	> 100 µM	> 100 µM	> 100 µM	> 100 µM	–	–	–	–	–	–	–
CN(C(=O)Cc1ccc(Cl)c(Cl)c1)[C@@H]1CCCC[C@H]1[N+]1(C)CC=CC1	> 100 µM	> 100 µM	> 100 µM	> 100 µM	> 100 µM	> 100 µM	> 100 µM	> 100 µM	> 100 µM	> 100 µM	> 100 µM	> 100 µM	> 100 µM	–	–	–	–	–	–	–
CCOC(=O)/C(C#N)=C1\c2c([nH]c(=S)[nH]c2=O)Oc2ccc3ccccc3c21	> 100 µM	41.4 µM	58.5 µM	> 100 µM	> 100 µM	4.56 µM	> 100 µM	> 100 µM	> 100 µM	> 100 µM	> 100 µM	> 100 µM	47.3 µM	–	–	–	–	–	–	–
CC(=O)OCC1OC(N2C(C)=C(C(C)=O)C(c3ccco3)C(C#N)=C2S)C(OC(C)=O)C(OC(C)=O)C1OC(C)=O (stereo not drawn)	–	> 100 µM	> 100 µM	> 100 µM	> 100 µM	> 100 µM	> 100 µM	> 100 µM	> 100 µM	> 100 µM	> 100 µM	> 100 µM	> 100 µM	–	–	–	–	–	–	–
O=C(O)c1ccc(Nc2nc3ccccc3nc2-c2cccs2)cc1	> 100 µM	> 100 µM	–	> 100 µM	> 100 µM	> 100 µM	> 100 µM	> 100 µM	–	> 100 µM	> 100 µM	> 100 µM	> 100 µM	–	–	–	–	–	–	–
Cc1nn(-c2ccccc2)c2[nH]c(=S)cnc12	> 100 µM	–	> 100 µM	> 100 µM	> 100 µM	> 100 µM	> 100 µM	> 100 µM	> 100 µM	> 100 µM	> 100 µM	> 100 µM	> 100 µM	–	–	–	–	–	–	–
CCCCC(=O)NC1(c2cc3ccccc3s2)CCCCC1	> 100 µM	> 100 µM	> 100 µM	> 100 µM	> 100 µM	76.5 µM	> 100 µM	> 100 µM	> 100 µM	> 100 µM	> 100 µM	> 100 µM	–	–	–	–	–	–	–	–
NC1=NN(c2ccccc2)C2(O)c3ccncc3C3=NN(c4ccccc4)C(=O)C132 (stereo not drawn)	> 100 µM	> 100 µM	> 100 µM	> 100 µM	> 100 µM	> 100 µM	> 100 µM	> 100 µM	> 100 µM	> 100 µM	> 100 µM	–	> 100 µM	–	–	–	–	–	–	–
